The text below walks through data of patent US11576979B2, “Pyrrolobenzodiazepine prodrugs and antibody conjugates thereof” (GENENTECH, INC., priority 2016, dated 2023).

For one assay, the system named is WSU-DLCL2. Briefly: CELLTITER GLO cell proliferation assay (Example 6). Type of assay: cell-based. Conditions: data in parenthesis = repeat evaluations, read-out: IC50 potency WSU-DLCL2. The essentials: (§1)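 Cells seeded at about 8000 (WSU-DLCL2) or 4000 (KPL-4) per well in RPMI-1640 with 10% FBS, 2 mM glutamine, 50 uM cystine and 0.015 g/L L-methionine; 10-point 1:3 dose-response in triplicate, cultured at 37° C., 5% CO2. Viability read by CellTiter-Glo luminescence, normalized to no-compound minus no-cell controls.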
On the technique in general: In ATP-based viability assays light output follows the ATP content of the culture.

The test system of a further assay is KPL-4. In words: CELLTITER GLO cell proliferation assay (Example 6). Conditions: data in parenthesis = repeat evaluations, read-out: IC50 potency KPL-4. The class given is cell-based. The gist of the method:
as §1

In assay [1] the test system is MDA-MB-453 tumor cell line. In words: in vitro tumor cell killing assay, 3 days (Example 13). The class given is cell-based. Conditions: Homo sapiens, 72 h; MDA-MB-453; 3 days; read-out: EC50. Here is the method: The toxicity of various PBD monomer and dimer boronic acid prodrug compounds were evaluated for cell toxicity. In the in vitro tumor cell killing assay, the cells were added to each well of 96-well microtiter plates at 8,000 cells per well and were incubated overnight at 37° C. in a humidified atmosphere of 5% CO2. The cells were exposed to various concentration of the indicated prodrug, positive control and negative control compounds. Where silvestrol was evaluated, a 1:3 serial dilution was used. After incubation for 3 days, Cell titer-Glo reagent (Promega, Madison Wis.) was added to the wells at 100 μL per well followed by a 10-minute incubation at room temperature, and the luminescent signal was measured using a Packard/Perkin-Elmer TopCount.
The toxicity of PBD monomer boronic acid prodrug 1 was evaluated against MDA-MB-453 tumor cell line for cell viability. PBD monomer control 1 was used as a positive control and PBD monomer control 2 was used as a negative control. The toxicity study was repeated wherein the PBD prodrug and controls were administered in combination with silvestrol. FIG. 15C depicts a plot of MDA-MB-453 cell kill versus drug concentration in μM three days after exposure to: (i) a PBD monomer control; (ii) a PBD monomer control having a benzyl formate moiety at the N10 PBD position; and (iii) a PBD monomer boronic acid prodrug. […]

Assay [2] deals with double strand DNA Oligos 1 and 2. Briefly: DNA oligo binding, LC/MS/UV. Conditions: 100 uM compound, 100 uM DNA, 1 hour, 37 C. As to the method: For DNA binding determination, the compounds were incubated at 100 μM with 100 μM double strand DNA Oligos 1 and 2 for 1 hour in 10 mM Bis-Tris, pH 7.1 at 37° C. The single strand DNA Oligos (5′-TATAGAATCTATA-3′ and 3′-ATATCTTAGATAT-5′) were synthesized at Genentech. The samples were analyzed by LC/MS/UV (210-450 nm) on Sciex TripleTOF 5600 on a Hypersil Gold C18 column (100×2.1, 1.9 Thermo Scientific). The column was eluted at 0.4 mL/min by a gradient of buffer A (50 mM hexafluoro-isopropanol and 15 mM diisopropylethylamine) to buffer B (50% A and 50% of 1:1 methanol:acetonitrile), 5% 0-0.5 min, 5-25% B 0.5-25 min, 25-95% B 25-40 min, and to 95% B 40-42 min. The % remaining was an average of the starting DNA oligos remaining in incubations (n=2). The products were characterized by LC/MS in a negative ESI ion mode.

For the next assay, the system named is WSU Cell line. Briefly: Cell viability, DTD-activated quinone prodrugs (Example 15). Conditions: WSU Cell line (low DTD); Table 10; read-out: IC50 Potency. The class given is cell-based. As to the method:
(§2) The toxicity of PBD dimer diaphorase prodrug 1, PBD monomer diaphorase prodrug 2, PBD dimer control 1 and PBD monomer control 1 were evaluated against KPL-4 and WSU cell lines for cell viability. The KPL-4 cell line is was a high DTD cell line characterized by NQO1 nRPKM of 839 and the WSU cell line was a low DTD cell line characterized by a NQO1 nRPKM of 1.36. The IC50 ratios are based on the prodrug IC50 value relative to the PBD dimer control.

Another assay has as its system KPL-4 Cell line. The assay is described as above. The class given is cell-based. The conditions noted are these: KPL4; KPL-4 Cell line (high DTD); Table 10; read-out: IC50 Potency. Here is the method: as §2

Read-outs that look alike come from different tables or passages of the source.

The term IC50 denotes the concentration that inhibits the measured activity by half. A word on the EC50: it is the midpoint of the concentration-response curve.

On to `C=C1C[C@H]2C=Nc3cc(OC)c(OC)cc3C(=O)N2C1` [PBD monomer control 1, reference compound], for which the IC50 in the assay on WSU-DLCL2 (Homo sapiens, WSUDLCL2, Table 4) is 106 nM; in the assay with WSU-DLCL2 (Table 4), 109 nM; in the assay with KPL-4 (KPL4, Table 4), 330 nM; with KPL-4 (Table 4), 241 nM; in the assay on WSU Cell line, 106 nM; in the assay on KPL-4 Cell line it was 330 nM. Also, the EC50 in assay [1] came out at 164 nM. The “% DNA oligo remaining” value in assay [2] turned out to be 35%.
